The NIST ThermoML archive (doi:10.1016/j.fluid.2011.04.022)
Numbers after ± are expanded uncertainties.

Settings: Liquid, Vibrating tube method

FC(F)CC(F)(F)F [1,1,1,3,3-pentafluoropropane]
mass density [kg/m3]
Settings	293.84 K	303.46 K	313.18 K	323 K	332.83 K	343.01 K	353 K	362.91 K	372.94 K
1000 kPa	1352.16 ± 1.4	1326.31 ± 1.5	1299.2 ± 1.5	1270.55 ± 1.6	1240.26 ± 1.7	1206.92 ± 1.9	–	–	–
3000 kPa	1357.97 ± 1.4	1332.8 ± 1.4	1306.56 ± 1.5	1278.98 ± 1.6	1250.02 ± 1.7	1218.46 ± 1.8	1185.75 ± 2	1150.79 ± 2.2	1112.26 ± 2.5
5000 kPa	1363.53 ± 1.4	1338.98 ± 1.4	1313.51 ± 1.4	1286.86 ± 1.5	1259.06 ± 1.6	1228.97 ± 1.7	1198.11 ± 1.8	1165.55 ± 1.9	1130.36 ± 2.2
10000 kPa	1376.42 ± 1.4	1353.32 ± 1.4	1329.44 ± 1.4	1304.71 ± 1.5	1279.16 ± 1.5	1251.88 ± 1.6	1224.38 ± 1.7	1195.94 ± 1.8	1165.97 ± 1.9
15000 kPa	1388.34 ± 1.4	1366.31 ± 1.4	1343.73 ± 1.4	1320.47 ± 1.4	1296.63 ± 1.5	1271.37 ± 1.5	1246.17 ± 1.6	1220.45 ± 1.6	1193.67 ± 1.7
20000 kPa	1399.29 ± 1.4	1378.22 ± 1.4	1356.77 ± 1.4	1334.65 ± 1.4	1312.15 ± 1.4	1288.45 ± 1.5	1265.01 ± 1.5	1241.23 ± 1.6	1216.58 ± 1.6
25000 kPa	1409.54 ± 1.4	1389.33 ± 1.4	1368.61 ± 1.4	1347.58 ± 1.4	1326.17 ± 1.4	1303.77 ± 1.4	1281.67 ± 1.5	1259.38 ± 1.5	1236.4 ± 1.5
30000 kPa	1419.03 ± 1.4	1399.65 ± 1.4	1379.73 ± 1.4	1359.46 ± 1.4	1339.02 ± 1.4	1317.65 ± 1.4	1296.64 ± 1.5	1275.54 ± 1.5	1253.82 ± 1.5
35000 kPa	1428.09 ± 1.5	1409.33 ± 1.4	1390.16 ± 1.4	1370.64 ± 1.4	1350.93 ± 1.4	1330.42 ± 1.4	1310.33 ± 1.5	1290.2 ± 1.5	1269.55 ± 1.5
40000 kPa	1436.79 ± 1.5	1418.45 ± 1.5	1399.89 ± 1.5	1381.03 ± 1.5	1362.03 ± 1.5	1342.2 ± 1.5	1322.95 ± 1.5	1303.67 ± 1.5	1283.89 ± 1.5
50000 kPa	1452.73 ± 1.6	1435.43 ± 1.6	1417.82 ± 1.6	1400.08 ± 1.6	1382.12 ± 1.5	1363.61 ± 1.5	1345.62 ± 1.5	1327.67 ± 1.5	1309.28 ± 1.5
60000 kPa	1467.39 ± 1.7	1450.88 ± 1.7	1434.07 ± 1.7	1417.12 ± 1.6	1400.21 ± 1.6	1382.71 ± 1.6	1365.63 ± 1.6	1348.77 ± 1.6	1331.43 ± 1.6
70000 kPa	1480.99 ± 1.9	1465.1 ± 1.8	1449.07 ± 1.8	1432.87 ± 1.8	1416.64 ± 1.8	1399.92 ± 1.7	1383.75 ± 1.7	1367.68 ± 1.7	1351.23 ± 1.6

FC(F)(F)CC(F)(F)F [1,1,1,3,3,3-hexafluoropropane]
mass density [kg/m3]
Settings	293.38 K	303.23 K	313.1 K	322.94 K	333.06 K	343.19 K	353.23 K	363.22 K	373.17 K
1000 kPa	1380.41 ± 1.6	1346.41 ± 1.8	1310.15 ± 2	1272.73 ± 2.3	1230.59 ± 2.5	–	–	–	–
3000 kPa	1389.7 ± 1.6	1356.85 ± 1.7	1322.54 ± 1.9	1287.52 ± 2.1	1248.74 ± 2.4	1207.31 ± 2.8	1161.43 ± 3.2	–	–
5000 kPa	1398.14 ± 1.6	1366.62 ± 1.6	1333.75 ± 1.7	1300.71 ± 1.9	1264.58 ± 2	1226.45 ± 2.3	1185.57 ± 2.6	1140.64 ± 3	1091.26 ± 3.4
10000 kPa	1417.22 ± 1.5	1388.23 ± 1.6	1358.32 ± 1.7	1328.74 ± 1.8	1297.09 ± 1.9	1264.58 ± 2	1230.77 ± 2.3	1195.26 ± 2.5	1158.13 ± 2.9
15000 kPa	1434.22 ± 1.5	1407.04 ± 1.5	1379.33 ± 1.6	1352.16 ± 1.6	1323.56 ± 1.7	1294.29 ± 1.8	1264.63 ± 1.9	1233.73 ± 2.1	1202.21 ± 2.2
20000 kPa	1449.45 ± 1.5	1423.79 ± 1.5	1397.77 ± 1.5	1372.4 ± 1.6	1345.92 ± 1.6	1319.04 ± 1.7	1292.08 ± 1.8	1264.17 ± 1.8	1236.05 ± 1.9
25000 kPa	1463.39 ± 1.5	1438.88 ± 1.5	1414.16 ± 1.5	1390.33 ± 1.6	1365.48 ± 1.6	1340.43 ± 1.6	1315.3 ± 1.7	1289.66 ± 1.7	1263.9 ± 1.8
30000 kPa	1476.18 ± 1.5	1452.75 ± 1.5	1429.13 ± 1.5	1406.5 ± 1.6	1382.82 ± 1.6	1359.27 ± 1.6	1335.89 ± 1.6	1311.7 ± 1.6	1287.72 ± 1.7
35000 kPa	1488.18 ± 1.6	1465.54 ± 1.6	1442.8 ± 1.6	1421.01 ± 1.6	1398.61 ± 1.6	1376.24 ± 1.6	1354.11 ± 1.6	1331.22 ± 1.6	1308.62 ± 1.6
40000 kPa	1499.36 ± 1.6	1477.52 ± 1.6	1455.53 ± 1.6	1434.57 ± 1.6	1413.18 ± 1.6	1391.75 ± 1.6	1370.58 ± 1.6	1348.77 ± 1.6	1327.34 ± 1.6
50000 kPa	1519.84 ± 1.7	1499.35 ± 1.7	1478.52 ± 1.7	1459.05 ± 1.7	1439.06 ± 1.7	1419.24 ± 1.6	1399.7 ± 1.6	1379.54 ± 1.6	1359.88 ± 1.6
60000 kPa	1538.35 ± 1.9	1518.78 ± 1.9	1499.21 ± 1.8	1480.75 ± 1.8	1461.86 ± 1.8	1443.29 ± 1.8	1424.96 ± 1.7	1406.01 ± 1.7	1387.66 ± 1.7
70000 kPa	1555.2 ± 2.1	1536.58 ± 2	1517.63 ± 2	1500.21 ± 2	1482.19 ± 1.9	1464.6 ± 1.9	1447.34 ± 1.9	1429.34 ± 1.8	1412.03 ± 1.8
